Earlier results, collected in patent publication US20040097404A1, “Supplement to be enternally administered for parenteral nutrition or partial enteral/oral nurtrition of the critically ill, the chronically ill and people with malnutrition” (priority 2000, published 2004).

Tests used:
[1] = oral, daily doses of 50 to 400 mg/kg of body weight over 3 weeks

SMILES	butyrate concentration in the plasma [1]	toxic side effects [1]	carcinogenic properties at autopsy (parenteral form for 21 years, patient)	toxicity (trivalent chromium)
CCCC(=O)OCC(COC(=O)CCC)OC(=O)CCC [glycerol tributyrate]	~0.5 mmol	without detectable toxic side effects		
[Cr+3] [trivalent chromium]			no evidence of carcinogenic properties	nontoxic
